From ChEMBL document CHEMBL1126229, “Enol lactone derivatives as inhibitors of human neutrophil elastase and trypsin-like proteases” (Bioorg Med Chem Lett, 1992)
Each block holds one molecule with its values, some of them ahead of it.

Tests used:
[1] = target: T1, Chymotrypsin-like elastase family member 2A (Sus scrofa) (UniProt P08419); assay: Specificity constant on porcine pancreatic elastase was determined at 15 percent and at 35 minutes for maximum inhibition with 0 minutes persistence of inhibition
T1 sequence (whole entry): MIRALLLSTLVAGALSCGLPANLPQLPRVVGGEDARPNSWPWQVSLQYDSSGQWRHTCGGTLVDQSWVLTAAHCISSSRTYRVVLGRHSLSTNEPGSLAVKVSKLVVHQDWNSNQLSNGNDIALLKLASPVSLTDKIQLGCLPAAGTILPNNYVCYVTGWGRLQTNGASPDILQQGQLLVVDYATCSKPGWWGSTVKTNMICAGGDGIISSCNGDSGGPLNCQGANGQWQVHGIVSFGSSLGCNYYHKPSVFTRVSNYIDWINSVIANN

[2] = target: T2, Neutrophil elastase (Homo sapiens) (UniProt P08246); assay: Binding constant on human neutrophil elastase was determined at 20 percent and at 95 minutes for maximum inhibition and no enzyme activity was recovered over the 2 h-time
T2 sequence (whole entry): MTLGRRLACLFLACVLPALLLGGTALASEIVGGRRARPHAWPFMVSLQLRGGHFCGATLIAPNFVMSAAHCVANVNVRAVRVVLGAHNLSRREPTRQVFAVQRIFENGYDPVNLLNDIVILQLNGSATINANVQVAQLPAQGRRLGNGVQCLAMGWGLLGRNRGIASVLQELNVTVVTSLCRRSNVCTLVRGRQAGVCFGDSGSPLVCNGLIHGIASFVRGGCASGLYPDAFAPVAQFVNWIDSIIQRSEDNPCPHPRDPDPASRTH

[3] = target: T1, Chymotrypsin-like elastase family member 2A (Sus scrofa); assay: Rate constant of acylation on porcine pancreatic elastase was determined at 15 percent and at 35 minutes for maximum inhibition with 0 minutes persistence of inhibition
[4] = target: T2, Neutrophil elastase (Homo sapiens); assay: Rate constant of acylation on human neutrophil elastase was determined at 20 percent and at 95 minutes for maximum inhibition and no enzyme activity was recovered over the 2 h-time
[5] = target: T1, Chymotrypsin-like elastase family member 2A (Sus scrofa); assay: Binding constant on porcine pancreatic elastase was determined at 15 percent and at 35 minutes for maximum inhibition with 0 minutes persistence of inhibition
[6] = target: T2, Neutrophil elastase (Homo sapiens); assay: Specificity constant on human neutrophil elastase was determined at 20 percent and at 95 minutes for maximum inhibition and no enzyme activity was recovered over the 2 h-time
[7] = target: T2, Neutrophil elastase (Homo sapiens); assay: Binding constant on human neutrophil elastase was determined at 30 percent and at 80 minutes for maximum inhibition and no enzyme activity was recovered over the 2 h-time
[8] = target: Chymotrypsinogen A (Bos taurus) (UniProt P00766); assay: Binding constant on alpha-chymotrypsin was determined at 10 percent and at 98 minutes for maximum inhibition and no enzyme activity was recovered over the 2 h-time
[9] = target: T2, Neutrophil elastase (Homo sapiens); assay: Specificity constant on human neutrophil elastase was determined at 30 percent and at 80 minutes for maximum inhibition and no enzyme activity was recovered over the 2 h-time
Serine protease 1 [10] = target: T3, Serine protease 1 (Homo sapiens, UniProt P07477); assay: Rate constant of acylation on trypsin was determined at 10 percent and at 83 minutes for maximum inhibition and no enzyme activity was recovered over the 2 h-time
[11] = target: Chymotrypsinogen A (Bos taurus) (UniProt P00766); assay: Specificity constant on alpha-chymotrypsin was determined at 10 percent and at 98 minutes for maximum inhibition and no enzyme activity was recovered over the 2 h-time
[12] = target: T1, Chymotrypsin-like elastase family member 2A (Sus scrofa); assay: Rate constant of acylation on porcine pancreatic elastase was determined at 30 percent and at 99 minutes for maximum inhibition and no enzyme activity was recovered over the 2 h-time
Serine protease 1 [13] = target: T3, Serine protease 1; assay: Specificity constant on trypsin was determined at 10 percent and at 83 minutes for maximum inhibition and no enzyme activity was recovered over the 2 h-time
[14] = target: Chymotrypsinogen A (Bos taurus) (UniProt P00766); assay: Rate constant of acylation on alpha-chymotrypsin was determined at 10 percent and at 98 minutes for maximum inhibition and no enzyme activity was recovered over the 2 h-time
[15] = target: T1, Chymotrypsin-like elastase family member 2A (Sus scrofa); assay: Specificity constant on porcine pancreatic elastase was determined at 30 percent and at 99 minutes for maximum inhibition and no enzyme activity was recovered over the 2 h-time
Serine protease 1 [16] = target: T3, Serine protease 1; assay: Binding constant on trypsin was determined at 10 percent and at 83 minutes for maximum inhibition and no enzyme activity was recovered over the 2 h-time
[17] = target: T2, Neutrophil elastase (Homo sapiens); assay: Rate constant of acylation on human neutrophil elastase was determined at 30 percent and at 80 minutes for maximum inhibition and no enzyme activity was recovered over the 2 h-time
[18] = target: T1, Chymotrypsin-like elastase family member 2A (Sus scrofa); assay: Binding constant on porcine pancreatic elastase was determined at 30 percent and at 99 minutes for maximum inhibition and no enzyme activity was recovered over the 2 h-time
[19] = target: Chymotrypsinogen A (Bos taurus) (UniProt P00766); assay: Binding constant on alpha-chymotrypsin was determined at 45 percent and at 96 minutes for maximum inhibition and no enzyme activity was recovered over the 2 h-time
Serine protease 1 [20] = target: T3, Serine protease 1; assay: Rate constant of deacylation for trypsin
[21] = target: T4, Urokinase-type plasminogen activator (Homo sapiens, UniProt P00749); assay: Rate constant of deacylation for Urokinase-type plasminogen activator
Serine protease 1 [22] = target: T3, Serine protease 1
[23] = target: Chymotrypsinogen A (Bos taurus) (UniProt P00766)
Serine protease 1 [24] = target: T3, Serine protease 1; remark: listed apart in the source
Description: Specificity constant on trypsin was determined at 0 percent and at 95 minutes for maximum inhibition and no enzyme activity was recovered over the 2 h-time

Serine protease 1 [25] = target: T3, Serine protease 1; assay: Rate constant of deacylation for trypsin; Fast and could not be measured
[26] = target: Chymotrypsinogen A (Bos taurus) (UniProt P00766); remark: listed apart in the source
[27] = target: Chymotrypsinogen A (Bos taurus) (UniProt P00766); remark: listed apart in the source
[28] = target: T4, Urokinase-type plasminogen activator
Serine protease 1 [29] = target: T3, Serine protease 1; remark: listed apart in the source
[30] = target: T4, Urokinase-type plasminogen activator; remark: listed apart in the source
Description: Specificity constant on Urokinase-type plasminogen activator was determined at 0 percent and at 86 minutes for maximum inhibition and no enzyme activity was recovered over the 2 h-time

Chymotrypsinogen A = Chymotrypsinogen A (Bos taurus, UniProt P00766); assay: Rate constant of deacylation for alpha-chymotrypsin; Fast and could not be measured
[31] = target: T4, Urokinase-type plasminogen activator; remark: listed apart in the source
Serine protease 1 [32] = target: T3, Serine protease 1; assay: Specificity constant on trypsin was determined at 0 percent and at 97 minutes for maximum inhibition with 45 minutes persistence of inhibition
[33] = target: T4, Urokinase-type plasminogen activator; assay: Binding constant on Urokinase-type plasminogen activator was determined at 0 percent and at 97 minutes for maximum inhibition and no enzyme activity was recovered over the 2 h-time
Serine protease 1 [34] = target: T3, Serine protease 1; assay: Rate constant of acylation on trypsin was determined at 0 percent and at 97 minutes for maximum inhibition with 45 minutes persistence of inhibition
[35] = target: T4, Urokinase-type plasminogen activator; assay: Specificity constant on Urokinase-type plasminogen activator was determined at 0 percent and at 97 minutes for maximum inhibition and no enzyme activity was recovered over the 2 h-time
[36] = target: T4, Urokinase-type plasminogen activator; assay: Rate constant of acylation on Urokinase-type plasminogen activator […] was determined at 0 percent and at 97 minutes for maximum inhibition and no enzyme activity was recovered over the 2 h-time
[37] = target: T4, Urokinase-type plasminogen activator; assay: Rate constant of deacylation for Urokinase-type plasminogen activator; NM - Fast and could not be measured
Serine protease 1 [38] = target: T3, Serine protease 1; assay: Binding constant on trypsin was determined at 0 percent and at 97 minutes for maximum inhibition with 45 minutes persistence of inhibition

T3 sequence (P07477 whole entry): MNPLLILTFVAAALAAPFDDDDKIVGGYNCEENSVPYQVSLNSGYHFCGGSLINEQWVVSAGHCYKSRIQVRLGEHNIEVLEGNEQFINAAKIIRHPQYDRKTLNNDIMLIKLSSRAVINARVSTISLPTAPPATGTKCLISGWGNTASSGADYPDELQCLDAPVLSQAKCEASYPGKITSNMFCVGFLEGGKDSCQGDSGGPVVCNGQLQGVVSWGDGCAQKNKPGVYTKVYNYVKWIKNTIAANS

ka/Ki [1]: 333 M⁻¹ s⁻¹ | Ks/i [2]: 3 µM | ka [3]: 1.12 min⁻¹ | ka [4]: 0.81 min⁻¹ | Ks/i [5]: 48.7 µM | ka/Ki [6]: 4500 M⁻¹ s⁻¹
Structure (SMILES): C/C(Br)=C1/CCC(C(C)C)C(=O)O1 (stereo not given)

Ks/i [7]: 6.25 µM | Ks/i [8]: 89 µM | ka/Ki [9]: 34700 M⁻¹ s⁻¹ | ka (Serine protease 1 [10]): 0.45 min⁻¹ | ka/Ki [11]: 667 M⁻¹ s⁻¹ | ka [12]: 0.42 min⁻¹ | ka/Ki (Serine protease 1 [13]): 333 M⁻¹ s⁻¹ | ka [14]: 3.2 min⁻¹ | ka/Ki [15]: 83.3 M⁻¹ s⁻¹ | Ks/i (Serine protease 1 [16]): 24 µM | ka [17]: 13 min⁻¹ | Ks/i [18]: 88 µM
Structure (SMILES): C=C1CCC(C(C)C)C(=O)O1 (stereo not given)

Ks/i [19]: 0.17 µM | Kd (Serine protease 1 [20]): 8.3e-05 s⁻¹ | Kd [21]: 1.3e-05 s⁻¹
Structure (SMILES): N=C(N)Nc1ccc([C@H]2C/C(=C\I)OC(=O)[C@@H]2NC(=O)c2ccccc2)cc1

Ks/i (Serine protease 1 [22]): 10 µM | ka/Ki [23]: 350000 M⁻¹ s⁻¹ | ka/Ki (Serine protease 1 [24]): 17000 M⁻¹ s⁻¹ | Kd (Serine protease 1 [25]): 2.5e-05 s⁻¹ | Ks/i [26]: 0.46 µM | ka [27]: 9.51 min⁻¹ | ka [28]: 4.83 min⁻¹ | ka (Serine protease 1 [29]): 10.2 min⁻¹ | ka/Ki [30]: 13300 M⁻¹ s⁻¹ | Kd (Chymotrypsinogen A): Not measurable | Ks/i [31]: 6 µM
Structure (SMILES): C=C1C[C@H](c2ccc(NC(=N)N)cc2)[C@@H](NC(=O)c2ccccc2)C(=C)O1

ka/Ki (Serine protease 1 [32]): 1.03e+06 M⁻¹ s⁻¹ | Kd (Serine protease 1 [25]): Not measurable | Ks/i [33]: 0.33 µM | ka (Serine protease 1 [34]): 14.3 min⁻¹ | ka/Ki [35]: 1.98e+07 M⁻¹ s⁻¹ | ka [36]: 391 min⁻¹ | Kd [37]: Not measurable | Ks/i (Serine protease 1 [38]): 0.23 µM
Structure (SMILES): C=C1CCC(c2ccc(NC(=N)N)cc2)C(=O)O1 (stereo not given)
